Measurements taken from ChEMBL document CHEMBL5143705, “Design, synthesis and structure-activity relationship of 4-(1,1,1,3,3,3-hexafluoro-2-hydroxyisoprop-2-yl)phenylsilane derivatives as liver X receptor agonists” (Bioorg Med Chem, 2022).

Tests used:
Format in all cases: cell-based
[1] = target: T1, Oxysterols receptor LXR-alpha (Homo sapiens, UniProt Q13133); assay: Agonist activity against human LXRalpha expressed in human HEK293T cells co-expressing CMX-GAL4N-hLXRalpha incubated for 24 hrs by reporter gene assay
T1 sequence (Q13133 whole entry): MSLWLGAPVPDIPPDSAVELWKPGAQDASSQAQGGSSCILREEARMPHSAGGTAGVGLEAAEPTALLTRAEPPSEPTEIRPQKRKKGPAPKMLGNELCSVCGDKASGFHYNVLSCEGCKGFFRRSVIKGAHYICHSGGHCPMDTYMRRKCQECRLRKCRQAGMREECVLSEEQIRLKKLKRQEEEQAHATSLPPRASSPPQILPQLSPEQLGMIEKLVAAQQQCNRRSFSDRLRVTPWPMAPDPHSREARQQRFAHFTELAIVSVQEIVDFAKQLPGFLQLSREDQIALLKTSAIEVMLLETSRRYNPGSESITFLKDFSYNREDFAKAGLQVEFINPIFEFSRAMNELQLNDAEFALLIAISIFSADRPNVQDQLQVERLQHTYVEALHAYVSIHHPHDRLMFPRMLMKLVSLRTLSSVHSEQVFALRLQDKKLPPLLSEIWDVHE

[2] = Toxicity in human HEK293 cells assessed as reduction in cell viability at 10 uM; conditions: hek293, 10 µM
[3] = target: T2, Oxysterols receptor LXR-beta (Homo sapiens, UniProt P55055); assay: Agonist activity against human LXRbeta expressed in human HEK293T cells co-expressing CMX-GAL4N-hLXRbeta incubated for 24 hrs by reporter gene assay
T2 sequence (P55055 whole entry): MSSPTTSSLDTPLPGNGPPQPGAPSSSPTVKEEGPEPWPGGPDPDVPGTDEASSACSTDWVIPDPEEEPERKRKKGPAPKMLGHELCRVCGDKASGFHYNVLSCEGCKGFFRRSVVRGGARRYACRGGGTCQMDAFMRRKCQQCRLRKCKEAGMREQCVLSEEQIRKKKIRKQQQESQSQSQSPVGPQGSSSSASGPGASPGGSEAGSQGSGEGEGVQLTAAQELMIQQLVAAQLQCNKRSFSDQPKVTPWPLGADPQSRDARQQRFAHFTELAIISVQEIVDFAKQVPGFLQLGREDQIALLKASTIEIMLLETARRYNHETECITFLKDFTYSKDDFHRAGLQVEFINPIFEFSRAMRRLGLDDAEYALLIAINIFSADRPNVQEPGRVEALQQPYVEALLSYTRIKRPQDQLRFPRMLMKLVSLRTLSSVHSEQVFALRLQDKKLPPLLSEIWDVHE

[4] = target: T3, Oxysterols receptor LXR-beta (Homo sapiens) (UniProt P55055); assay: Partial agonist activity against human LXRbeta in human HEK293T cells incubated for 24 hrs by reporter gene assay T0901317
T3 sequence (whole entry): T2 sequence (P55055 whole entry)

[5] = target: T4, Oxysterols receptor LXR-alpha (Homo sapiens) (UniProt Q13133); assay: Partial agonist activity against human LXRalpha in human HEK293T cells incubated for 24 hrs by reporter gene assay relative to T0901317
T4 sequence (whole entry): T1 sequence (Q13133 whole entry)

SMILES | EC50 [1] [nM] | Activity [2] | EC50 [3] [nM] | Activity [4] [%] | Activity [5] [%]
C[Si](C)(CCCO)c1ccc(C(O)(C(F)(F)F)C(F)(F)F)cc1 | 4450 | Non-Toxic | 4030 | – | –
CC[Si](C)(CC)c1ccc(C(O)(C(F)(F)F)C(F)(F)F)cc1 | 590 | Non-Toxic | 690 | – | –
CC(O)[Si](C)(C)c1ccc(C(O)(C(F)(F)F)C(F)(F)F)cc1 (stereo not given) | 4450 | Non-Toxic | 3340 | – | –
C[Si](C)(C)[Si](C)(C)c1ccc(C(O)(C(F)(F)F)C(F)(F)F)cc1 | 580 | Non-Toxic | 510 | – | –
C=C[Si](C)(C)c1ccc(C(O)(C(F)(F)F)C(F)(F)F)cc1 | 2060 | Non-Toxic | 1800 | – | –
C[Si](C)(C)c1ccc(C(O)(C(F)(F)F)C(F)(F)F)cc1 | 3120 | Non-Toxic | 1410 | – | –
OC(c1ccc([Si](Cc2ccccc2)(Cc2ccccc2)Cc2ccccc2)cc1)(C(F)(F)F)C(F)(F)F | 4980 | Non-Toxic | 1980 | 27 | 19
CC(C)(C)[Si](C)(C)c1ccc(C(O)(C(F)(F)F)C(F)(F)F)cc1 | 1130 | Non-Toxic | 650 | – | –
CCCC[Si](C)(C)c1ccc(C(O)(C(F)(F)F)C(F)(F)F)cc1 | 2350 | Non-Toxic | 1700 | – | –
CC[Si](CC)(CC)c1ccc(C(O)(C(F)(F)F)C(F)(F)F)cc1 | 620 | Non-Toxic | 530 | – | –
O=S(=O)(c1ccccc1)N(CC(F)(F)F)c1ccc(C(O)(C(F)(F)F)C(F)(F)F)cc1 [T091317] | – | Non-Toxic | – | – | –
C[Si](C)(Cc1ccccc1)c1ccc(C(O)(C(F)(F)F)C(F)(F)F)cc1 | 940 | Non-Toxic | 720 | – | –
CCC[Si](CCC)(CCC)c1ccc(C(O)(C(F)(F)F)C(F)(F)F)cc1 | 430 | Non-Toxic | 590 | – | –
C=CC[Si](C)(C)c1ccc(C(O)(C(F)(F)F)C(F)(F)F)cc1 | 500 | Non-Toxic | 450 | – | –
C[Si](C)(c1ccc(C(O)(C(F)(F)F)C(F)(F)F)cc1)C1CCCCC1 | 1430 | Non-Toxic | 740 | – | –
C[Si](C)(c1ccccc1)c1ccc(C(O)(C(F)(F)F)C(F)(F)F)cc1 | 2150 | Non-Toxic | 740 | – | –
CN(c1ccc(C(O)(C(F)(F)F)C(F)(F)F)cc1)S(=O)(=O)c1ccccc1 | – | Non-Toxic | – | – | –
C[Si](C)(CCO)c1ccc(C(O)(C(F)(F)F)C(F)(F)F)cc1 | 1460 | Non-Toxic | 1730 | – | –
C[Si](O)(c1ccccc1)c1ccc(C(O)(C(F)(F)F)C(F)(F)F)cc1 (stereo not given) | 8500 | Non-Toxic | 5030 | – | –
